Test results from US6689372B1, “Microbicidal active substances” (Ciba Specialty Chemicals Corporation, priority 1998, dated 2004).

How the values were obtained:
Assay type in all cases: cell-based
[1] = system: Pseudomonas aeruginosa ATCC 15 442; assay: Agar diffusion test; also: values in mm; conditions: P. aeruginosa ATCC 15 442
Procedure: (§1) Determination of antimicrobial activity in the agar diffusion test [table] After the bacteria precultures have been incubated, they are diluted 1:100 with dilution medium. 3.5 ml of that dilution of the bacteria are introduced into 500 ml of agar and from that organism-containing agar plates of about 15 ml of medium are poured. […] After the agar plates have cooled and solidified, wells are punched in the agar (diameter 10 mm) and 100 μl of test substance solution are introduced into each well. After incubation of the plates, the diameters of the growth-free inhibiting areolas in the agar are determined.

[2] = system: Staphylococcus aureus ATCC 9144; assay: Agar diffusion test; also: values in mm; conditions: S. aureus ATCC 9144
Procedure: as §1

[3] = system: Escherichia coli NCTC 8196; assay: Agar diffusion test; also: values in mm; conditions: E. coli NCTC 8196
Procedure: as §1

[4] = system: Candida albicans ATCC 10231; assay: Agar diffusion test; also: values in mm
Procedure: as §1

[5] = system: Aspergillus niger ATCC 6275; assay: Agar diffusion test; also: values in mm; conditions: A. niger ATCC 6275
Procedure: Determination of antimicrobial activity in the agar diffusion test [table] After the bacteria precultures have been incubated, they are diluted 1:100 with dilution medium. 3.5 ml of that dilution of the bacteria are introduced into 500 ml of agar and from that organism-containing agar plates of about 15 ml of medium are poured. The test substances are dissolved in a suitable solvent in final concentrations of 1-3%. After the agar plates have cooled and solidified, wells are punched in the agar (diameter 10 mm) and 100 μl of test substance solution are introduced into each well. After incubation of the plates, the diameters of the growth-free inhibiting areolas in the agar are determined.

[6] = system: Staphylococcus aureus ATCC 9144; assay: Agar incorporation test (MIC test); conditions: S. aureus
Procedure: (§2) Determination of the Minimum Inhibiting Concentration (MIC) in the Agar Incorporation Test (MIC Test)
(§3) When the nutrient substrate has solidified, 10 μl portions of the following organism dilutions of the test strains in 0.85% NaCl solution are spotted onto the agar medium:
(§4) The plates are incubated at 37° C. for 24 hours (A.niger 3 days at 28° C.) and then the highest dilution of the test substance at which growth is just no longer discernible (corresponds to MIC) is determined.

[7] = system: Escherichia coli NCTC 8196; assay: Agar incorporation test (MIC test); conditions: E. coli
Procedure: as §2, §3, §4

[8] = system: Pseudomonas aeruginosa CIP A-22; assay: Agar incorporation test (MIC test); conditions: P. aeruginosa
Procedure: as §2, §3, §4

[9] = system: Aspergillus niger ATCC 6275; assay: Agar incorporation test (MIC test); conditions: A. niger
Procedure: as §2, §3, §4

[10] = system: Corynebacterium xerosis ATCC 373; assay: Agar incorporation test (MIC test); conditions: C. xerosis
Procedure: as §2, §3, §4

[11] = system: Staphylococcus epidermidis ATCC 12228; assay: Agar incorporation test (MIC test); conditions: S. epidermidis
Procedure: as §2, §3, §4

[12] = system: Candida albicans ATCC 10231; assay: Agar incorporation test (MIC test); conditions: C. albicans
Procedure: as §2, §3, §4

[13] = 1% in ethanol, C. albicans ATCC 10231
[14] = 2% in ethanol, C. albicans ATCC 10231

| SMILES | Inhibiting areola diameter ([5]; 1% in ethanol) | Inhibiting areola diameter ([5]; 2% in ethanol) | Inhibiting areola diameter ([2]; 1% in ethanol) | Inhibiting areola diameter ([2]; 2% in ethanol) | Inhibiting areola diameter ([3]; 1% in ethanol) | Inhibiting areola diameter ([3]; 2% in ethanol) | Inhibiting areola diameter [4, 13] | Inhibiting areola diameter [4, 14] | MIC ([6]; solution in EtOH) [ppm] | MIC ([7]; solution in EtOH) [ppm] | MIC ([8]; solution in EtOH) [ppm] | MIC ([9]; solution in EtOH) [ppm] | MIC ([10]; solution in EtOH) [ppm] | MIC ([11]; solution in EtOH) [ppm] | MIC ([12]; solution in EtOH) [ppm] | other results |
| --- | --- | --- | --- | --- | --- | --- | --- | --- | --- | --- | --- | --- | --- | --- | --- | --- |
| O=c1oc(-c2ccc([N+](=O)[O-])o2)ns1 [compound 105] |  |  |  |  |  |  |  |  |  |  |  |  |  |  |  | Inhibiting areola diameter ([1]; 0.1% in THF): 0/0; Inhibiting areola diameter ([1]; 0.5% in THF): 1/1; Inhibiting areola diameter ([1]; 1.0% in THF): 5/5; Inhibiting areola diameter ([1]; 3.0% in THF): 6/6; Inhibiting areola diameter ([2]; 0.1% in THF): 4/4; Inhibiting areola diameter ([2]; 0.5% in THF): 10/10; Inhibiting areola diameter ([2]; 1.0% in THF): 11/11; Inhibiting areola diameter ([2]; 3.0% in THF): 11/11; Inhibiting areola diameter ([3]; 0.1% in THF): 1/1; Inhibiting areola diameter ([3]; 0.5% in THF): 3/3; Inhibiting areola diameter ([3]; 1.0% in THF): 6/6; Inhibiting areola diameter ([3]; 3.0% in THF): 6/6; Inhibiting areola diameter ([4]; 0.1% in THF, C. albicans ATCC 10 231): 3/3; Inhibiting areola diameter ([4]; 0.5% in THF, C. albicans ATCC 10 231): 4/4; Inhibiting areola diameter ([4]; 1.0% in THF, C. albicans ATCC 10 231): 8/8; Inhibiting areola diameter ([4]; 3.0% in THF, C. albicans ATCC 10 231): 9/9 |
| O=c1oc(-c2ccc(Cl)cc2)ns1 [compound 107] | 0/0 | 0/0 | 4/4 | 5/5 | 1/1 | 1/1 | 3/3 | 4/4 |  |  |  |  |  |  |  |  |
| O=c1oc(-c2cccnc2)ns1 [compound 103] |  |  |  |  |  |  |  |  | 100 | 600 | 600 | 600 | 200 | 100 | 100 |  |
| O=c1oc(-c2ccccc2O)ns1 [compound 101] |  |  |  |  |  |  |  |  | 100 | 1000 | 1000 | 100 | 250 | 100 | 100 |  |
| Cc1nsc(=O)o1 [compound 108] | 4/5 | 12/12 | 12/12 | 20/20 | 1/1 | 3/2 | 8/8 | 10/10 |  |  |  |  |  |  |  |  |
| O=c1oc(-c2ccccc2)ns1 [compound 106] |  |  |  |  |  |  |  |  |  |  |  |  |  |  |  | MIC ([6]; solution in DMSO): 10 ppm; MIC ([7]; solution in DMSO): 100 ppm; MIC ([8]; solution in DMSO): 1000 ppm; MIC ([9]; solution in DMSO): 250 ppm; MIC ([10]; solution in DMSO): 10 ppm; MIC ([11]; solution in DMSO): 10 ppm; MIC ([12]; solution in DMSO): 100 ppm |
